# Molecular target: recombinant human Myt1 (Homo sapiens (Human), UniProt Q99640)
# Assay: Myt1 enzymatic assay (ADP-Glo kinase assay)
# Type: biochemical
# Settings: recombinant human Myt1 18 nM, ATP 10 μM
# Protocol: Detection of Myt1 kinase activity utilized a recombinant human Myt1 kinase assay measuring the hydrolysis of ATP using a commercially available ADP-Glo Assay (ADP-Glo™ Kinase Assay from Promega, 10 000 assays, #V9102). Briefly, 5 μL recombinant human Myt1 (full length PKMYT1 recombinant human protein expressed in insect cells from Thermo Fisher #A33387; ˜80% purity) was prepared in reaction buffer (70 mM HEPES, 3 mM MgCl2, 3 mM MnCl2, 50 μg/ml PEG 20000, 3 μM Na-orthovanadate, 1.2 mM DTT) and added to 384 well white polystyrene, flat bottom well, non-treated, microplate (Corning #3572). After this, 5 μL of compounds (diluted in reaction buffer to 0.5% DMSO) was added to the microplate and the plate was spun briefly and incubated at 22° C. for 15 minutes. Ultra-Pure Adenosine Triphosphate (ATP) solution (ADP-Glo kit from Promega) was diluted in reaction buffer and 5 μL was added to the microplate, spun down briefly and incubated for 60 minutes at 30° C. The final Myt1 enzyme concentration was 18 nM and the final ATP concentration was 10 μM. After the 60-minute incubation, 15 μL of ADP-Glo reagent was added and the plate was spun briefly and sealed and incubated in the dark for 40 minutes at 22° C. Following this, 30 μL of kinase detection reagent was added per well and the plate was spun briefly, sealed and incubated for 45-60 minutes at 22° C. in the dark. Luminescence was read using the Envision (250 ms integration). The IC50 and the % max inhibition were calculated for each inhibitor compound tested.
# recombinant human Myt1, sequence (Q99640 whole entry): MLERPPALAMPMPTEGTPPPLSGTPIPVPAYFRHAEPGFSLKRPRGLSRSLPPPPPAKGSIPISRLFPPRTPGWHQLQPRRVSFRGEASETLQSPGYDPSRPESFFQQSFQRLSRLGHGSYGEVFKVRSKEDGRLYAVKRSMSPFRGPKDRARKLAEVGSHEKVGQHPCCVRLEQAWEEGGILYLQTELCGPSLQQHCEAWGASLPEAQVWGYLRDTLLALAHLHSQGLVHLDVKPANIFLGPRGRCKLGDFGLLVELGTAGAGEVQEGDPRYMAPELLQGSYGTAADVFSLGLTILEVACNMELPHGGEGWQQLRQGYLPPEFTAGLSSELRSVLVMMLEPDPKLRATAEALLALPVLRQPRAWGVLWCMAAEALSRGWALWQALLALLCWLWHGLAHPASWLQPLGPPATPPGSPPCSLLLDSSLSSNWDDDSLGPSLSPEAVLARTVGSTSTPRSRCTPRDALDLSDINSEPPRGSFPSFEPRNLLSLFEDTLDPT
row,SMILES,IC50 [nM]
1,"Nc1c(-c2cccc3[nH]ncc23)cc(-c2ccc(F)cc2)c2nc[nH]c(=O)c12 [Compound 48, 5-amino-8-(4-fluorophenyl)-6-(1H-indazol-4-yl) quinazolin-4(3H)-one]",30
2,Nc1c(-c2cccc3[nH]ncc23)cc(-c2nc(C(F)(F)F)cs2)c2nc[nH]c(=O)c12 [Compound 119],55
3,Cc1ccc2[nH]ncc2c1-c1cc(-c2nccs2)c2nc[nH]c(=O)c2c1N [Compound 98],5
4,Cc1ccc2[nH]ncc2c1-c1cc(-c2cccc(OCc3ncco3)n2)c2nc[nH]c(=O)c2c1N [Compound 91],5
5,Cc1ccc(O)cc1-c1cc(-c2ncc(C(=O)O)s2)c2c(c1N)C(=O)NC2 [Compound 148],1860
6,CN(C)c1ccc(-c2nc3c(Br)cc(-c4cccc5[nH]ncc45)c(N)c3c(=O)[nH]2)cn1 [Compound 12],9
7,Nc1c(-c2cccc3[nH]ncc23)cc(-c2cccc(C(F)(F)F)c2)c2nc[nH]c(=O)c12 [Compound 49],990
8,Nc1c(-c2cccc3[nH]ncc23)cc(-c2cnccn2)c2nc[nH]c(=O)c12 [Compound 130],45
9,Nc1c(-c2cccc3[nH]ncc23)cc(-c2ccc(C(F)(F)F)s2)c2nc[nH]c(=O)c12 [Compound 126],880
10,Nc1c(-c2cccc3[nH]ncc23)cc(-c2cc(F)cc(F)c2)c2nc[nH]c(=O)c12 [Compound 124],66
11,Nc1c(-c2cccc3[nH]ncc23)cc(Br)c2nc(-c3ccc(N4CCN(C5CC5)C(=O)C4)nc3)[nH]c(=O)c12 [Compound 11],5
12,Cc1ccc(O)c(C)c1-c1cc(-c2ccc(F)cn2)c2c(c1N)C(=O)NC2 [Compound 140],111
13,CN1CC=C(c2cc(-c3cccc4[nH]ncc34)c(N)c3c(=O)[nH]c(-c4ccncc4)nc23)CC1 [Compound 56],7
14,Nc1c(-c2cccc3[nH]ncc23)cc(-c2nccs2)c2nc(-c3cccnc3)[nH]c(=O)c12 [Compound 111],4
15,Cc1ccc(O)cc1-c1cc(-c2ncc(CN3CCOCC3)s2)c2c(c1N)C(=O)NC2 [Compound 143],1600
16,Nc1c(-c2cccc3[nH]ncc23)cc(C2=CCC(F)(F)CC2)c2nc(-c3ccncc3)[nH]c(=O)c12 [Compound 71],21
17,Nc1c(-c2cccc3[nH]ncc23)cc(C2=CCOCC2)c2nc(-c3ccncc3)[nH]c(=O)c12 [Compound 64],3
18,Cc1ccc(O)cc1-c1cc(-c2nc(C(=O)NC(C)C)cs2)c2c(c1N)C(=O)NC2 [Compound 158],55
19,Cc1ncccc1-c1nc2c(-c3nccs3)cc(-c3cccc4[nH]ncc34)c(N)c2c(=O)[nH]1 [Compound 113],94
20,Cc1ccc(O)c(C)c1-c1cc(Br)c2c(c1N)C(=O)NC2 [Compound 141],92
21,Cc1ccc(O)cc1-c1cc(C2=CCOCC2)c2c(c1N)C(=O)NC2 [Compound 105],641
22,"Cc1ccc(O)c(C)c1-c1cc(C2CC2)c2nc(-c3ccncc3)[nH]c(=O)c2c1N (single isomer, unassigned) [Compound 22, 5-amino-8-cyclopropyl-6-(3-hydroxy-2,6-dimethyl-phenyl)-2-(4-pyridyl)-3H-quinazolin-4-one]",3
23,Nc1c(-c2cccc3[nH]ncc23)cc(-n2ccc(C3CCOCC3)n2)c2nc(-c3cccnc3)[nH]c(=O)c12 [Compound 76],8
24,Nc1c(-c2cccc3[nH]ncc23)cc(-c2nccs2)c2nc(-c3ccc(N4CCOCC4)nc3)[nH]c(=O)c12 [Compound 2],15
25,"Nc1c(-c2cccc3[nH]ncc23)cc(Br)c2nc(-c3ccc(N4CCOCC4)nc3)[nH]c(=O)c12 [Compound 25, 5-amino-8-bromo-6-(1H-indazol-4-yl)-2-(6-morpholinopyridin-3-yl)quinazolin-4(3H)-one 2,2,2-trifluoroacetate]",23
26,Cc1ccc2[nH]ncc2c1-c1cc(-c2cccc(OCc3ncccn3)n2)c2nc[nH]c(=O)c2c1N [Compound 102],10
27,Nc1c(-c2cccc3[nH]ncc23)cc(-c2nccs2)c2nc[nH]c(=O)c12 [Compound 28],4

# From patent US20230348456A1, “QUINAZOLINONES, PHARMACEUTICAL COMPOSITIONS CONTAINING THE SAME, AND METHODS OF USING THE SAME” (Repare Therapeutics Inc., priority 2022, published 2023)
